Experimental data taken from patent publication US6864396B2, “Substituted pentacene semiconductors” (3M Innovative Properties Company, priority 2001, dated 2005).

Format: physicochemical
Settings: for Weight %: solubility in THF, 25° C., calculated with extinction coefficient of pentacene
Protocol: The solubility of several alkyl substituted pentacenes in tetrahydrofuran (THF) was compared with that of pentacene. Samples were prepared by adding excess alkyl substituted pentacene compounder pentacene compound to newly opened THF and sonicating for 20-30 seconds to facilitate dissolution. All handling of the solutions and solvent was done in a nitrogen-purged environment. Solutions were transferred to a 1 cm cuvette with a disposable pipette. The cuvette was then placed in a spectrophotometer for 5 minutes for temperature equilibration (25° C.). Absorbance measurements were made using an Hewlett Packard 8453 photodiode array spectrophotometer over a range of wavelengths from 200 to 1100 nm. THF was used as a reference blank. All of the spectrographs were corrected for baseline differences, which possibly resulted from excess compound in suspension. In calculating the concentration and weight % values, the extinction coefficient of pentacene that is, 10^3.76 at 577 nm was used for all substituted pentacenes.

Row | Concentration | Solubility in THF compared with pentacene, 2,9-dimethylpentacene, 2,10-dimethylpentacene, 2,9-didodecylpentacene | Weight % | SMILES | Absorbance at 577 nm | Relative Absorbance
1 | 243 µM | significantly more soluble | 1.45 × 10^−2 Weight % | CCCCCCCCCc1ccc2cc3cc4cc5cc(CCCCCCCCC)ccc5cc4cc3cc2c1 [2,9-dinonylpentacene, 2,9-Dinonylpentacene] | 1.398 | 9.562
2 | 3350 µM | significantly more soluble | 2.00 × 10^−1 Weight % | CC(CCc1ccc2cc3cc4cc5cc(CCC(C)CC(C)(C)C)ccc5cc4cc3cc2c1)CC(C)(C)C (centres unmarked) [2,9-di(3,5,5-trimethylhexyl)pentacene, 2,9-Di(3,5,5-trimethylhexyl)pentacene] |  | 
3 | 10.7 µM |  | 7.38 × 10^−4 Weight % | CCCCCCCCCCCCc1ccc2cc3cc4cc5cc(CCCCCCCCCCCC)ccc5cc4cc3cc2c1 [2,9-didodecylpentacene, 2,9-Didodecylpentacene] | 0.061 | 0.420
4 | 172 µM | significantly more soluble | 8.62 × 10^−3 Weight % | CCCCCCc1ccc2cc3cc4cc5cc(CCCCCC)ccc5cc4cc3cc2c1 [2,9-dihexylpentacene, 2,9-Dihexylpentacene] | 0.987 | 6.752

Row | SMILES | Concentration | Solubility in THF compared with pentacene, 2,9-dimethylpentacene, 2,10-dimethylpentacene, 2,9-didodecylpentacene | Weight % | Absorbance at 577 nm | Relative Absorbance
5 | Cc1ccc2cc3cc4cc5ccc(C)cc5cc4cc3cc2c1 [2,10-dimethylpentacene, 2,10-Dimethylpentacene] | 6.06 µM |  | 2.77 × 10^−4 Weight % | 0.035 | 0.239
6 | c1ccc2cc3cc4cc5ccccc5cc4cc3cc2c1 [pentacene] | 25.4 µM |  | 7.95 × 10^−4 Weight % | 0.146 | 1.000
7 | Cc1ccc2cc3cc4cc5cc(C)ccc5cc4cc3cc2c1 [2,9-dimethylpentacene, 2,9-Dimethylpentacene] | 3.59 µM |  | 1.64 × 10^−4 Weight % | 0.021 | 0.142
